In the supplement of paper PMC8558673:

System: Escherichia coli K12 ER1821
Assay: log10 surviving fraction N/N0 (CFU/mL relative to untreated control) (log_unit); higher = more bacterial survival (less inactivation)
Protocol: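 E. coli K12 ER1821 (mid-exponential, washed in 250 mM sucrose) was exposed to antibiotic at MIC, 3x, 10x or 30x MIC, given a single 1-ms pulse of 0-20 kV/cm, and incubated with the antibiotic at room temperature for <=1 min, 60 min, 160 min or 24 h before dilution. Survivors were counted as CFU by drop plating after overnight growth at 37 C; the value is log10(N/N0) relative to the untreated control (no antibiotic, no pulse), with 3 replicates on different days.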

CC1(C)S[C@@H]2[C@H](NC(=O)[C@H](N)c3ccccc3)C(=O)N2[C@H]1C(=O)O [ampicillin]
log10 surviving fraction N/N0
Conditions | antibiotic concentration 30 ug/mL | antibiotic concentration 90 ug/mL | antibiotic concentration 300 ug/mL | antibiotic concentration 900 ug/mL
electric pulse amplitude (kV/cm, single 1-ms pulse): 0, post-pulse incubation time: 24 h | -0.726 | -1.73 | -2.56 | -2.68
electric pulse amplitude (kV/cm, single 1-ms pulse): 0, post-pulse incubation time: 60 min | -0.0801 | -0.135 | -1.02 | -1.65
electric pulse amplitude (kV/cm, single 1-ms pulse): 0, post-pulse incubation time: 160 min | -0.551 | -1.08 | -1.68 | -2.17
electric pulse amplitude (kV/cm, single 1-ms pulse): 0, post-pulse incubation time: <=1 min | -0.0839 | -0.253 | -0.17 | -0.995
electric pulse amplitude (kV/cm, single 1-ms pulse): 5, post-pulse incubation time: 24 h | -1.01 | -1.77 | -2.86 | -3.4
electric pulse amplitude (kV/cm, single 1-ms pulse): 5, post-pulse incubation time: 60 min | -0.411 | -0.494 | -1.56 | -2.27
electric pulse amplitude (kV/cm, single 1-ms pulse): 5, post-pulse incubation time: 160 min | -0.803 | -1.47 | -2.27 | -2.86
electric pulse amplitude (kV/cm, single 1-ms pulse): 5, post-pulse incubation time: <=1 min | -0.112 | -0.305 | -0.412 | -1.08
electric pulse amplitude (kV/cm, single 1-ms pulse): 10, post-pulse incubation time: 24 h | -1.62 | -2.91 | -4.063 | -4.5
electric pulse amplitude (kV/cm, single 1-ms pulse): 10, post-pulse incubation time: 60 min | -1.07 | -1.59 | -2.43 | -2.817
electric pulse amplitude (kV/cm, single 1-ms pulse): 10, post-pulse incubation time: 160 min | -1.64 | -2.22 | -2.96 | -3.31
electric pulse amplitude (kV/cm, single 1-ms pulse): 10, post-pulse incubation time: <=1 min | -0.474 | -0.722 | -1.11 | -1.27
electric pulse amplitude (kV/cm, single 1-ms pulse): 15, post-pulse incubation time: 24 h | -2.66 | -3.79 | -4.45 | -4.93
electric pulse amplitude (kV/cm, single 1-ms pulse): 15, post-pulse incubation time: 60 min | -1.88 | -2.12 | -2.9 | -3.28
electric pulse amplitude (kV/cm, single 1-ms pulse): 15, post-pulse incubation time: 160 min | -2.2 | -2.74 | -3.3 | -3.8
electric pulse amplitude (kV/cm, single 1-ms pulse): 15, post-pulse incubation time: <=1 min | -1.1 | -1.29 | -1.34 | -1.99
electric pulse amplitude (kV/cm, single 1-ms pulse): 20, post-pulse incubation time: 24 h | -3.57 | -4.39 | -4.6 | -4.96
electric pulse amplitude (kV/cm, single 1-ms pulse): 20, post-pulse incubation time: 60 min | -2.46 | -2.71 | -3.42 | -3.64
electric pulse amplitude (kV/cm, single 1-ms pulse): 20, post-pulse incubation time: 160 min | -2.65 | -3.23 | -3.77 | -4.02
electric pulse amplitude (kV/cm, single 1-ms pulse): 20, post-pulse incubation time: <=1 min | -1.34 | -1.45 | -1.85 | -2.58

CN(C)[C@@H]1C(O)=C(C(N)=O)C(=O)[C@@]2(O)C(O)=C3C(=O)c4c(O)cccc4[C@@](C)(O)[C@H]3C[C@@H]12 [tetracycline]
log10 surviving fraction N/N0
Conditions | antibiotic concentration 2 ug/mL | antibiotic concentration 6 ug/mL | antibiotic concentration 20 ug/mL | antibiotic concentration 60 ug/mL
electric pulse amplitude (kV/cm, single 1-ms pulse): 0, post-pulse incubation time: 24 h | -0.417 | -0.475 | -0.573 | -1.45
electric pulse amplitude (kV/cm, single 1-ms pulse): 0, post-pulse incubation time: 60 min | -0.108 | -0.125 | -0.116 | -0.361
electric pulse amplitude (kV/cm, single 1-ms pulse): 0, post-pulse incubation time: 160 min | -0.0521 | -0.172 | -0.241 | -0.461
electric pulse amplitude (kV/cm, single 1-ms pulse): 0, post-pulse incubation time: <=1 min | -0.0586 | -0.2 | -0.136 | -0.26
electric pulse amplitude (kV/cm, single 1-ms pulse): 5, post-pulse incubation time: 24 h | -0.436 | -0.518 | -0.877 | -2.42
electric pulse amplitude (kV/cm, single 1-ms pulse): 5, post-pulse incubation time: 60 min | -0.307 | -0.307 | -0.303 | -0.636
electric pulse amplitude (kV/cm, single 1-ms pulse): 5, post-pulse incubation time: 160 min | -0.235 | -0.282 | -0.345 | -0.84
electric pulse amplitude (kV/cm, single 1-ms pulse): 5, post-pulse incubation time: <=1 min | -0.0914 | -0.264 | -0.276 | -0.618
electric pulse amplitude (kV/cm, single 1-ms pulse): 10, post-pulse incubation time: 24 h | -0.65 | -0.762 | -1.8 | -3.46
electric pulse amplitude (kV/cm, single 1-ms pulse): 10, post-pulse incubation time: 60 min | -0.769 | -0.825 | -1.02 | -1.72
electric pulse amplitude (kV/cm, single 1-ms pulse): 10, post-pulse incubation time: 160 min | -0.827 | -0.925 | -1.11 | -2.1
electric pulse amplitude (kV/cm, single 1-ms pulse): 10, post-pulse incubation time: <=1 min | -0.389 | -0.48 | -0.656 | -1.39
electric pulse amplitude (kV/cm, single 1-ms pulse): 15, post-pulse incubation time: 24 h | -1 | -1.48 | -2.97 | -4.05
electric pulse amplitude (kV/cm, single 1-ms pulse): 15, post-pulse incubation time: 60 min | -1.45 | -1.53 | -1.82 | -2.48
electric pulse amplitude (kV/cm, single 1-ms pulse): 15, post-pulse incubation time: 160 min | -1.46 | -1.63 | -1.99 | -2.74
electric pulse amplitude (kV/cm, single 1-ms pulse): 15, post-pulse incubation time: <=1 min | -0.764 | -0.971 | -1.23 | -2.06
electric pulse amplitude (kV/cm, single 1-ms pulse): 20, post-pulse incubation time: 24 h | -1.49 | -1.98 | -3.9 | -4.78
electric pulse amplitude (kV/cm, single 1-ms pulse): 20, post-pulse incubation time: 60 min | -1.99 | -2.02 | -2.25 | -3.13
electric pulse amplitude (kV/cm, single 1-ms pulse): 20, post-pulse incubation time: 160 min | -1.97 | -2.19 | -2.44 | -3.57
electric pulse amplitude (kV/cm, single 1-ms pulse): 20, post-pulse incubation time: <=1 min | -1.26 | -1.3 | -1.57 | -2.34

O=C(O)c1cn(C2CC2)c2cc(N3CCNCC3)c(F)cc2c1=O [ciprofloxacin]
log10 surviving fraction N/N0
Conditions | antibiotic concentration 0.025 ug/mL | antibiotic concentration 0.075 ug/mL | antibiotic concentration 0.25 ug/mL | antibiotic concentration 0.75 ug/mL
electric pulse amplitude (kV/cm, single 1-ms pulse): 0, post-pulse incubation time: 24 h | -1.23 | -2.32 | -3.37 | -2.76
electric pulse amplitude (kV/cm, single 1-ms pulse): 0, post-pulse incubation time: 60 min | -0.187 | -0.389 | -1.04 | -1.39
electric pulse amplitude (kV/cm, single 1-ms pulse): 0, post-pulse incubation time: 160 min | -0.358 | -0.825 | -1.78 | -2.04
electric pulse amplitude (kV/cm, single 1-ms pulse): 0, post-pulse incubation time: <=1 min | -0.0971 | -0.218 | -0.361 | -0.897
electric pulse amplitude (kV/cm, single 1-ms pulse): 5, post-pulse incubation time: 24 h | -1.2 | -2.36 | -3.46 | -2.88
electric pulse amplitude (kV/cm, single 1-ms pulse): 5, post-pulse incubation time: 60 min | -0.336 | -0.615 | -1.11 | -1.47
electric pulse amplitude (kV/cm, single 1-ms pulse): 5, post-pulse incubation time: 160 min | -0.532 | -0.993 | -1.87 | -2.11
electric pulse amplitude (kV/cm, single 1-ms pulse): 5, post-pulse incubation time: <=1 min | -0.217 | -0.161 | -0.535 | -1.04
electric pulse amplitude (kV/cm, single 1-ms pulse): 10, post-pulse incubation time: 24 h | -1.78 | -2.97 | -3.49 | -3.36
electric pulse amplitude (kV/cm, single 1-ms pulse): 10, post-pulse incubation time: 60 min | -0.593 | -1.29 | -1.69 | -2.16
electric pulse amplitude (kV/cm, single 1-ms pulse): 10, post-pulse incubation time: 160 min | -1.04 | -1.73 | -2.52 | -2.86
electric pulse amplitude (kV/cm, single 1-ms pulse): 10, post-pulse incubation time: <=1 min | -0.507 | -0.67 | -0.989 | -1.83
electric pulse amplitude (kV/cm, single 1-ms pulse): 15, post-pulse incubation time: 24 h | -2.35 | -3.37 | -3.85 | -4.09
electric pulse amplitude (kV/cm, single 1-ms pulse): 15, post-pulse incubation time: 60 min | -1.41 | -1.81 | -2.34 | -2.77
electric pulse amplitude (kV/cm, single 1-ms pulse): 15, post-pulse incubation time: 160 min | -1.62 | -2.31 | -3.12 | -3.27
electric pulse amplitude (kV/cm, single 1-ms pulse): 15, post-pulse incubation time: <=1 min | -1.25 | -1.2 | -1.55 | -2.28
electric pulse amplitude (kV/cm, single 1-ms pulse): 20, post-pulse incubation time: 24 h | -3.05 | -3.76 | -4.37 | -4.6
electric pulse amplitude (kV/cm, single 1-ms pulse): 20, post-pulse incubation time: 60 min | -1.77 | -2.25 | -2.75 | -3.05
electric pulse amplitude (kV/cm, single 1-ms pulse): 20, post-pulse incubation time: 160 min | -1.92 | -2.73 | -3.31 | -3.37
electric pulse amplitude (kV/cm, single 1-ms pulse): 20, post-pulse incubation time: <=1 min | -1.65 | -1.77 | -2.05 | -2.91
